{
  "source": "patent US20230000982A1",
  "about": "“COMPOSITION FOR PREVENTING OR TREATING CANCER, CONTAINING NOVEL TRIFLUOROMETHYL PHENYL PYRAZOLE DERIVATIVE AS ACTIVE INGREDIENT” (KOREA INSTITUTE OF RADIOLOGICAL & MEDICAL SCIENCES, priority 2019, published 2023)",
  "key": {"BT549": {"system": "BT549", "test": "Annexin V/PI staining FACS apoptosis analysis, BT549", "assay_type": "cell-based, Human", "details": "BT549, 20 μM, 48 h", "description": "(§1) After Annexin V/PI staining, FACS analysis was performed to confirm the cancer cell killing effect. Cancer cell lines MCF7 and BT549 were treated for 48 h in the presence and absence of 20 μM of KRCT-1, and analysis of Annexin V binding was performed using the Annexin V-FITC apoptosis Detection Kit (BD Biosciences, San Jose, Calif., USA) according to the manufacturer's recommended protocol. Briefly, after collecting all cells, including the cell medium, the cells were centrifuged at 1500 rpm for 5 minutes, washed with 1×PBS, resuspended at 1×10^6 cell concentration, and then 100 μl of the cell suspension was added in a 5 ml tube, and 5 μl of Annexin V-FITC and 5 μl of PI were added thereto and cultured in the dark for 15 minutes at RT. 400 μl of 1× binding buffer was added to each tube and samples were analyzed by flow cytometry. As a result, it was confirmed that MCF7 induced about 40%, BT549 induced about 23% cell death."}, "[1]": {"system": "breast cancer cell lines BT549, T47D and MCF7", "test": "Western blotting, radiation combination effect", "assay_type": "cell-based, Human", "details": "10 μM + 3 Gy radiation, 30 h", "description": "In order to confirm the synergistic effect of radiosensitivity of cancer cell lines through treatment with KRCT-1 through Western blotting experiments, 10 μM of KRCT-1 compound was treated in breast cancer cell lines BT549, T47D and MCF7, and Biobeam GM8000 (Gamma-Gamma-Service Medical GmbH, Leipzig, Germany) was used to culture for 30 h after treatment with 3 Gy radiation. For Western blotting, 20 μg of protein was isolated through SDS-PAGE electrophoresis and transferred to a PVDF membrane. The following specific antibodies were used: rabbit polyclonal antibody phospho-Chk2 (Thr68) (#2661; Cell Signaling Technology, MA); rabbit monoclonal antibody chk2 (#6334S) were used. The remaining conditions of Western blotting were performed in the same manner as in the above Example. […] Through the above results, it was confirmed that apoptosis of cancer cells appeared effectively."}, "Breast cancer cells MCF7": {"system": "Breast cancer cells MCF7", "test": "Tumorsphere forming assay", "assay_type": "cell-based, Human", "details": "cultured for 14 days; various breast cancer cell lines", "description": "(§2) Human-derived tumor cell lines and breast cancer cell lines MCF7 and T47D, BT549, MDA-MB231, and MDA-MB453 was cultured in a DMEM medium (Corning, N.Y., USA), containing 10% fetal bovine serum (FBS; HyClone, South Logan, Utah) and 1% penicillin/streptomycin at 37° C. and 5% CO2 conditions.\nIn order to determine whether the selected KRCT-1 can effectively reduce the tumorsphere formation in cancer cells, tumorsphere forming assay was performed. Breast cancer cells MCF7 (2500-10000 cells) were suspended in serum-free DMEM/F12 (welGENE), containing 1% penicillin, B-27 (1:50; invitrogen), 20 ng/mL epidermal growth factor (R&D Systems) and 20 ng/mL fibroblasts growth factors (R&D Systems) on low adhesion plates and cultured. After 24 hours had elapsed, the cells were treated with the compound and cultured for 14 days, and then the diameter of the tumorspheres was measured and quantified, which is shown in FIG. 3D."}, "Trk-A kinase [2]": {"molecular_target": "T1, Trk-A kinase (Homo sapiens, UniProt P04629)", "T1 sequence (P04629 33-796)": "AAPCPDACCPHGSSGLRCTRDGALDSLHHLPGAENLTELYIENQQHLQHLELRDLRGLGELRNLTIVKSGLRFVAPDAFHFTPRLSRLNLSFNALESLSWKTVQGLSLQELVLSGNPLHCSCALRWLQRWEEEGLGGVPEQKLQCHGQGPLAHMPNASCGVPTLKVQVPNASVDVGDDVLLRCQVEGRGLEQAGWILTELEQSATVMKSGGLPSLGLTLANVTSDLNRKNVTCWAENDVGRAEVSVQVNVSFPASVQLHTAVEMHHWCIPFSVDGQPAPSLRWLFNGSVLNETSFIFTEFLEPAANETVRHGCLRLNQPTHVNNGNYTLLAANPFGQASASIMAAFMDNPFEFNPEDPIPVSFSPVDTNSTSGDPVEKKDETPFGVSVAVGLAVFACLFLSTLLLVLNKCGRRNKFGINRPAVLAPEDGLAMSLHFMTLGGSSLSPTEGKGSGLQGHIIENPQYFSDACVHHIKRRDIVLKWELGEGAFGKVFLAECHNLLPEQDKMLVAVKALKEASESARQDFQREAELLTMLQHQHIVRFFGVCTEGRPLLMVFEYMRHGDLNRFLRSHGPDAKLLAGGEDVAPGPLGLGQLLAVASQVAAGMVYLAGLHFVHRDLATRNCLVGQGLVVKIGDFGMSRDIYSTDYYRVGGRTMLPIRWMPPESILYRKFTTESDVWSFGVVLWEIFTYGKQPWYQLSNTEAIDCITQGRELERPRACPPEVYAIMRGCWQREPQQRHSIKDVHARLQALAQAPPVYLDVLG", "test": "Western blotting of Trk-A downstream signaling (phosphorylated ERK, phosphorylated STAT3) in cancer cell lines", "assay_type": "cell-based", "details": "2.5, 5, 10, 20 μM; FIG. 7c", "description": "In cancer cell lines, it was confirmed whether KRCT-1 inhibits the activity of Trk-A kinase to inhibit downstream signaling. In the case that Trk-A is activated by ligand, the MEK/ERK and STAT3 signaling pathways in the cell are activated. Using this as an indicator, changes in phosphorylated ERK and phosphorylated STAT3 were confirmed in the case that cancer cell lines were treated with KRCT-1 concentrations (2.5, 5, 10, 20 μM). For Western blotting, 20 μg of protein was isolated through SDS-PAGE electrophoresis and transferred to PVDF membrane. The following specific antibodies were used: rabbit polyclonal antibody phospho-STAT3 (Tyr705) (ab76315; Abcam, UK), mouse monoclonal antibodies phospho-ERK (Thr202/Tyr204) (sc-514302; Santa Cruz Biotechnology), ERK (sc-7383; Santa Cruz Biotechnology), and STAT3 (sc8019; Santa Cruz Biotechnology) were used. The remaining conditions of Western blotting were performed in the same manner as in the above Example."}, "BT549 cell line": {"system": "BT549 cell line", "test": "Immunodeficient mouse tumor model (xenograft) transplanted with BT549", "assay_type": "in vivo", "details": "30 mg/kg intraperitoneally twice a week", "description": "By subcutaneously implanting a cancer cell line into an immunodeficient mouse tumor model, it was attempted to verify whether the anticancer effect of the compound actually occurs at the in vivo level. After the tumor was formed by implanting the BT549 cell line subcutaneously in the thigh of an immunodeficient mouse, in the case that the size of the tumor reached 50˜100 mm ˜3˜, the compound was intraperitoneally injected at 30 mg/kg twice a week. The tumor volume and the mouse weight were measured 3 times a week for the control group and the KRCT-1 treatment group, respectively. […] Western blotting was performed on the isolated mouse tumor for the tumor growth antigen Ki-67, which is shown B in FIG. 4b."}, "Trk-A kinase [3]": {"molecular_target": "T1, Trk-A kinase", "test": "In vitro kinase assay of Trk-A", "assay_type": "biochemical", "set-up": "purchased Eurofins Pharma Discovery Services (commissioned via Goma Biotech)", "details": "serially diluted 3-fold from 100 μM; FIG. 7b", "description": "To measure the selective reactivity of KRCT-1 to a specific kinase, in vitro kinase assay profiling was commissioned to Goma Biotech (Seoul, Korea), and the enzyme reaction experiment was performed at Eurofins Pharma Discovery Services (Scotland, UK). For kinase profiling, 104 kinase series and 10 μM KRCT-1 were used in the reaction as a broad oncology panel. To obtain the IC50 kinase assay of Trk-A, KRCT-1 serially diluted 3-fold from 100 μM was used."}, "MCF7 cells": {"system": "MCF7 cells", "test": "γ-H2AX foci experiment (DNA damage) with radiation", "assay_type": "cell-based, Human", "details": "20 μM for 24 h + 2 Gy radiation, fixed at 1 h; compared to each control group", "description": "To determine how KRCT-1 affects DNA damage induced by radiation, a γ-H2AX foci experiment was performed. In the case that single-stranded or double-stranded DNA is cleaved by various DNA damaging agents including radiation, γ-H2AX phosphorylation occurs and nuclear foci are generated in the cell nucleus. Using this as an index, the effect of the combination according to DNA damage was evaluated. After culturing 2.5×10^4 MCF7 cells in a 24-well plate for 48 h, KRCT-1 20 μM was treated for 24 h, and the cells were fixed at 1 h after irradiation with 2 Gy of radiation. Then, after washing with phosphate buffered saline for permeation, 4% paraformaldehyde and 0.2% Triton-X were added and reacted for 10 min each. After 1 h pretreatment with 5% fetal bovine serum, 1:100 dilution of γ-H2AX (05-656; EMD Millipore Corp., MA, USA) antibody to phosphorylated H2AX for was treated for 16 h, and it was washed 3 times with 0.1% TritonX-100/phosphate buffered saline solution (Tritonx-100/PBS). Alexa488-conjugated secondary antibody (AP132JA4, Invitrogen) was reacted for 2 h at room temperature and labeled, and phosphorylated γ-H2AX foci were photographed and analyzed with IN Cell Analyzer 6000 (GE Healthcare Life Science). […] Taken together, in cancer cells, it was confirmed that KRCT-1 is a material that can be effectively used as a radiosensitizer."}, "[4]": {"system": "breast cancer cell lines BT549, T47D and MCF7", "test": "Clonogenic assay, combination of KRCT-1 and radiation", "assay_type": "cell-based, Human", "details": "2.5 μM KRCT-1 + 2.5 Gy radiation; compared to DMSO group", "description": "A clonogenic assay was performed to confirm the effect of the combination of KRCT-1 and radiation. To perform clonogenic assay, breast cancer cell lines BT549, T47D and MCF7 were treated with 2.5 μM of KRCT-1 compound, and 2.5 Gy radiation was used using Biobeam GM8000 (Gamma-Gamma-Service Medical GmbH, Leipzig, Germany). The experimental technique for the remaining colony formation was performed in the same manner as in the above Example, and was shown in FIG. 6a. In the group treated with KRCT-1, the radiation treatment effect of the two cancer cell lines was significant compared to the group treated with DMSO, confirming that the number of cancer cell colonies decreased."}, "[5]": {"system": "breast cancer cell lines BT549, MCF7, T47D and MDA MB231", "test": "Colonogenic (colony formation) assay", "assay_type": "cell-based, Human", "details": "10 μM, cultured for 14 days; various breast cancer cell lines", "description": "as §2\nColonogenic analysis was performed to determine whether the selected KRCT-1 could efficiently kill cancer cells. First, cells of various breast cancer cell lines BT549, MCF7, T47D and MDA MB231 (500-1000 cells) were cultured in a 60 mm culture plate, and 24 hours later, 10 μM of the compound was treated, respectively, and cultured for 14 days."}, "[6]": {"system": "Breast cancer cell lines BT549, T47D, and MCF7", "test": "Western blotting of survivin and apoptosis markers", "assay_type": "cell-based, Human", "details": "0, 2.5, 5, 10, and 20 μM, 24 h", "description": "Apoptosis by KRCT-1 was confirmed through Western blotting. After separation of 20 μg of protein by SDS-PAGE electrophoresis and transferred to PVDF membrane, the following specific antibodies were used: rabbit polyclonal antibodies cleaved PARP (Asp214) (#9541) and phospho-Chk2 (Thr68) (#2661; Cell Signaling Technology, MA); rabbit monoclonal antibodies caspase3 (#9664), chk2 (#6334S), survivin (#2808S); mouse monoclonal antibody caspase 9 (551246; BD Pharmingen, Calif., USA). In addition, mouse monoclonal antibody (3-actin (C4; Santa Cruz Biotechnology, Calif., USA) was used as a loading control, washed with 1×PBS/0.1% Tween 20, and HRP-binding secondary antibody and improved chemiluminescence detection system was used to detect the binding protein, and an image of the band was obtained using the Amersham Imager 600 system (GE Healthcare Life Science), which is shown in FIG. 5b.\nBreast cancer cell lines BT549, T47D, and MCF7 were treated with 0, 2.5, 5, 10, and 20 μM of KRCT-1 in a dose-dependent manner for 24 h each, and the expression level of survivin essential for the survival of cancer cells and the expression levels of an apoptosis markers, clv-PARP, caspase 9 and caspase 3 were checked. According to the concentration of the treated KRCT-1, the expression levels of survivin and pro-caspase 9 in cancer cells were decreased, and it was confirmed that the truncated PARP and caspase3 increased during apoptosis. Through the above results, it was confirmed that apoptosis was activated due to KRCT-1."}, "MCF7": {"system": "MCF7", "test": "Annexin V/PI staining FACS apoptosis analysis, MCF7", "assay_type": "cell-based, Human", "details": "MCF7, 20 μM, 48 h", "description": "as §1"}},
  "data": [
    {"smiles": "CN(C)S(=O)(=O)Nc1cccc(-c2cnn(-c3ccc(C(F)(F)F)cc3)c2)c1", "note": "[KRCT-1, N,N-dimethyl-N′-(3-(1-(4-(trifluoromethyl)phenyl)-1H-pyrazol-4-yl)phenyl)azanesulfonamide]", "values": [
      {"measurement": "cell death (Annexin V/PI FACS)", "setting": "BT549", "result": "about 23%"},
      {"measurement": "expression level of phosphorylated Chk2 after radiation treatment", "setting": "[1]", "result": "increased"},
      {"measurement": "expression level of survivin after radiation treatment", "setting": "[1]", "result": "decreased"},
      {"measurement": "diameter of cancer cell tumorspheres", "setting": "Breast cancer cells MCF7", "result": "significantly reduced"},
      {"measurement": "downstream signaling of Trk-A kinase in cancer cells", "setting": "Trk-A kinase [2]", "result": "inhibited"},
      {"measurement": "expression of Ki-67 in isolated mouse tumor (Western blotting)", "setting": "BT549 cell line", "result": "significantly reduced"},
      {"measurement": "tumor volume and size", "setting": "BT549 cell line; 4 weeks after transplantation, vs control group", "result": "smaller tumor volume and size than the control group"},
      {"measurement": "body weight of immunodeficient mice", "setting": "BT549 cell line; weight measured 3 times a week", "result": "not significantly changed"},
      {"measurement": "in vitro Trk-A kinase activity", "setting": "Trk-A kinase [3]", "result": "inhibition"},
      {"measurement": "DNA damage (phosphorylated γ-H2AX foci)", "setting": "MCF7 cells", "result": "DNA damage occurred in relatively many cancer cells"},
      {"measurement": "number of cancer cell colonies after radiation", "setting": "[4]", "result": "decreased"},
      {"measurement": "number and size of cell colonies", "setting": "[5]", "result": "significantly reduced"},
      {"measurement": "truncated PARP", "setting": "[6]", "result": "increased"},
      {"measurement": "truncated caspase3", "setting": "[6]", "result": "increased"},
      {"measurement": "expression level of pro-caspase 9", "setting": "[6]; according to concentration", "result": "decreased"},
      {"measurement": "expression level of survivin", "setting": "[6]; according to concentration", "result": "decreased"},
      {"measurement": "cell death (Annexin V/PI FACS)", "setting": "MCF7", "result": "about 40%"}
    ]}
  ]
}
